Results reported in the supplement of paper PMC12463676, “Small-molecule dissolution of stress granules by redox modulation benefits ALS models” (Nature Chemical Biology, 2025).

What was measured:
potassium arsenate = compound: O=[As]([O-])(O)O.[K+] [potassium arsenate]; experiment: thermal stability z-score vs DMSO; higher = more thermally stabilized by treatment; settings: HeLa; arsenate concentration 1 mM
Protocol: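 Cellular thermal proteome profiling in HeLa cells treated with 1 mM arsenate for 1 h (DMSO pretreatment), heated to ten temperatures (37-66.3 °C). Soluble protein was quantified by TMT mass spectrometry relative to DMSO controls; the thermal stability score was transformed to a z-score; mean of n = 3 experiments.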

lipoamide = compound: NC(=O)CCCCC1CCSS1 [lipoamide]; experiment: as above; settings: HeLa, lipoamide concentration 100 µM
Protocol: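 Cellular thermal proteome profiling in HeLa cells. Cells were treated with 100 µM lipoamide for 1 h, with or without 1 mM arsenate for a further 1 h, then heated to ten temperatures (37-66.3 °C), and soluble protein was quantified by TMT mass spectrometry relative to 0.1% DMSO controls. The thermal stability score (sum of log2 fold changes minus the abundance score) was transformed to a z-score; mean of n = 3 experiments.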

[1] = arsenate co-treatment: 1 mM arsenate 1 h
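Also: each temperature applied for 3 min, abundance score taken as mean log2 fold change at the two lowest temperatures, z-score obtained by mean subtraction and division by SD.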

Chain of UniProt Q9HDC5 (Q9HDC5 whole entry): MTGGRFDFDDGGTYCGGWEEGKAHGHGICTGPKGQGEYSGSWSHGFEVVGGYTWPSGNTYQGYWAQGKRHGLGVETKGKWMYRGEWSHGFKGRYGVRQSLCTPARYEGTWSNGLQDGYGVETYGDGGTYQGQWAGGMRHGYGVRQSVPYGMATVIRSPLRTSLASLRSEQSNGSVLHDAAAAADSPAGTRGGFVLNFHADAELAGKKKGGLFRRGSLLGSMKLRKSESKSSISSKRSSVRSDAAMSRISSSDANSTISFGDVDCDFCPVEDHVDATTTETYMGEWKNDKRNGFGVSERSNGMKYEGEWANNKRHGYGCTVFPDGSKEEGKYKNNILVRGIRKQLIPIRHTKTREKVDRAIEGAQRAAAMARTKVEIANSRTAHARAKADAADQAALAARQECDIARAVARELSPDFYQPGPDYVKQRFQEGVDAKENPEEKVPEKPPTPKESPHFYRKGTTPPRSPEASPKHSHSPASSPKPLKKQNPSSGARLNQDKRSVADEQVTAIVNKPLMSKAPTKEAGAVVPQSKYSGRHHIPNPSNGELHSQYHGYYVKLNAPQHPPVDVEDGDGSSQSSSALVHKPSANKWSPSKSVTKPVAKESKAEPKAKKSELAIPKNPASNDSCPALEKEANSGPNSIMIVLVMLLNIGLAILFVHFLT
Chain of UniProt P17980 (P17980 whole entry): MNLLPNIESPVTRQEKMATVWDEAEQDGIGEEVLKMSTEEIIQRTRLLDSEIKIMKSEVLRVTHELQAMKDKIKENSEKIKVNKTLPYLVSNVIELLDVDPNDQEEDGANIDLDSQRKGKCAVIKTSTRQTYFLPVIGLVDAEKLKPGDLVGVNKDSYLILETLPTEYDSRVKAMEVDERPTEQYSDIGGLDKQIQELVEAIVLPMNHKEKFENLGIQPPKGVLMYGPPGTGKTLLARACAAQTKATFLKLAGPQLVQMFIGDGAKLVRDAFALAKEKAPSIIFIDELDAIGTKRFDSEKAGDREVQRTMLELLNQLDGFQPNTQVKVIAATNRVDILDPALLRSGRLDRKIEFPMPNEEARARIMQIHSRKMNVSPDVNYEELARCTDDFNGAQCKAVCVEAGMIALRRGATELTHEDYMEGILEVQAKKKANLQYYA
Chain of UniProt P61163 (P61163 whole entry): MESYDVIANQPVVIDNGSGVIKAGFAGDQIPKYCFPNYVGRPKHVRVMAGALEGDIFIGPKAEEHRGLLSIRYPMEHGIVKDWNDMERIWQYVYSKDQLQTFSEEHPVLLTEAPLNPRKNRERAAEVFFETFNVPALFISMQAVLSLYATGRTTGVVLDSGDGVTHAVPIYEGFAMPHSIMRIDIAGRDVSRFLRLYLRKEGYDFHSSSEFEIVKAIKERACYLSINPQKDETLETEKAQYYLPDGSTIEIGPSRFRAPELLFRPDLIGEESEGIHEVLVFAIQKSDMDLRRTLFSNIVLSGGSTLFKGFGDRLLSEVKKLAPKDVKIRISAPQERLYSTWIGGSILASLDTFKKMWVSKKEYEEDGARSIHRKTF
Chain of UniProt O43592 (O43592 whole entry): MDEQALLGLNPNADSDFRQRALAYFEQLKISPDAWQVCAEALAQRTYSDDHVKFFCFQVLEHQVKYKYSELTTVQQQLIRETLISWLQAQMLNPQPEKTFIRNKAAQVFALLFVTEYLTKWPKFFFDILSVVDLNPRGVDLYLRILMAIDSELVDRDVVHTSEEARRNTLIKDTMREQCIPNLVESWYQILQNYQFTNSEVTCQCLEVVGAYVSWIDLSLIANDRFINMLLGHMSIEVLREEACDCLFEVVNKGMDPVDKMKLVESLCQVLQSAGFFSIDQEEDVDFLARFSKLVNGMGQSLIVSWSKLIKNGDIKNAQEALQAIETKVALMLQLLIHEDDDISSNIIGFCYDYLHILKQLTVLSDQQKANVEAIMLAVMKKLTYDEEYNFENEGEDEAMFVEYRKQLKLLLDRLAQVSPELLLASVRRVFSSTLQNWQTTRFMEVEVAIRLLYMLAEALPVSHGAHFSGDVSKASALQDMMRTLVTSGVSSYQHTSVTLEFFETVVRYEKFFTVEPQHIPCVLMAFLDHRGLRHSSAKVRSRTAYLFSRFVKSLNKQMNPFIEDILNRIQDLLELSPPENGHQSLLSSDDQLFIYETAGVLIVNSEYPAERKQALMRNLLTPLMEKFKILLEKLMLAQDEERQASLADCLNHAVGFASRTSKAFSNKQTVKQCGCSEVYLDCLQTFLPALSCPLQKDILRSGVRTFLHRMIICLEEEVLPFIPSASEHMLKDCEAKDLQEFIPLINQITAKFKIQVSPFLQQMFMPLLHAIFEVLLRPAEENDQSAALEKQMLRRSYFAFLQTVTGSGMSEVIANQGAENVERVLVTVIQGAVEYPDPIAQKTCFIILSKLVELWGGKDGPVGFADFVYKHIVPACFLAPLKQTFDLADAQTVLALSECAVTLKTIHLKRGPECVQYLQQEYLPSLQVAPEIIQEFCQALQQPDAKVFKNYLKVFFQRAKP
Chain of UniProt Q9UBT7 (Q9UBT7 whole entry): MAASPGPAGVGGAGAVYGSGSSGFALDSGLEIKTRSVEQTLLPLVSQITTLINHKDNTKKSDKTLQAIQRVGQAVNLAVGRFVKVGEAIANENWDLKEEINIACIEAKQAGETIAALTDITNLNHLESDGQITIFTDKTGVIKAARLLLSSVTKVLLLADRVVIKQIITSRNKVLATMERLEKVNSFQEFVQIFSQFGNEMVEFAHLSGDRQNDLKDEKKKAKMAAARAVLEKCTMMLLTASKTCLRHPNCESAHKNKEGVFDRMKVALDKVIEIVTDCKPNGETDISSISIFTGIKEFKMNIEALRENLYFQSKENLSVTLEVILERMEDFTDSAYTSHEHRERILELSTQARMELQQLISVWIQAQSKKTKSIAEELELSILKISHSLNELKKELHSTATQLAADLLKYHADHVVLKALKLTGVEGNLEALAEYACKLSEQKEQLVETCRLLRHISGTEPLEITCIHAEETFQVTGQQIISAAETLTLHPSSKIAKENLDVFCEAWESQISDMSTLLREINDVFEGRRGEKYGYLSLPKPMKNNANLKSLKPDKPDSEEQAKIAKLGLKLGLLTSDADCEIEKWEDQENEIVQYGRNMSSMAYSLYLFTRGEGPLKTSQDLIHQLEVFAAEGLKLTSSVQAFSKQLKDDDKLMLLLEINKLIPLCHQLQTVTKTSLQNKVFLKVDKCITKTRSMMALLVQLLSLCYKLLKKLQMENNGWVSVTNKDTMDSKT
Chain of UniProt P21291 (P21291 whole entry): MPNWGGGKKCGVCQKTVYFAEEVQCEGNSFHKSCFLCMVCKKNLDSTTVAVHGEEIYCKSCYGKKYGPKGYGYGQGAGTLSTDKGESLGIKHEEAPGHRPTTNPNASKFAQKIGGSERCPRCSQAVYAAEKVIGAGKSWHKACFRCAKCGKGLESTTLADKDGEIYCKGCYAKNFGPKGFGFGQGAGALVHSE
Chain of UniProt P78346 (P78346 whole entry): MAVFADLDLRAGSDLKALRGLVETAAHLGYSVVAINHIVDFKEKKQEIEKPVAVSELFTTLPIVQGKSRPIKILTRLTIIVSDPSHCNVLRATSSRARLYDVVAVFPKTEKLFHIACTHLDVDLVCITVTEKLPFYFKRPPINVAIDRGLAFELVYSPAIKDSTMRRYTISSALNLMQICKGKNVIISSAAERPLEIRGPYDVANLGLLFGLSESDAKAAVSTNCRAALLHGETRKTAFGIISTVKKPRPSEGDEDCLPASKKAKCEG
Chain of UniProt Q8IWE2 (Q8IWE2 whole entry): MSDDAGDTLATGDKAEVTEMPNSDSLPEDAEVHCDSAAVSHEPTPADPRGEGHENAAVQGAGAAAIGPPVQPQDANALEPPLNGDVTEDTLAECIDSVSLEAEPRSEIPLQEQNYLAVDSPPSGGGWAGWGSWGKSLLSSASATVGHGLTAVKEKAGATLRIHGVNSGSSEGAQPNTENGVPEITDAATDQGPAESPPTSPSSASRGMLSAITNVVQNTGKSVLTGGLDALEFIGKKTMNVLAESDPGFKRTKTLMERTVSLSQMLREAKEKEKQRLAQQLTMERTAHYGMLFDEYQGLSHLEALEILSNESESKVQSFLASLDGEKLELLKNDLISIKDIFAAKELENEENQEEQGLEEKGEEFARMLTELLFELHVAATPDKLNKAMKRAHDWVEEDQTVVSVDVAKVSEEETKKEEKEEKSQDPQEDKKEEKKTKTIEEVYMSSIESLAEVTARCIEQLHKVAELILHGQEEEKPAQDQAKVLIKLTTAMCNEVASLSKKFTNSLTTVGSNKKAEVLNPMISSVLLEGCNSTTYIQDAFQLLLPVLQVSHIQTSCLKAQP
Chain of UniProt O00193 (O00193 whole entry): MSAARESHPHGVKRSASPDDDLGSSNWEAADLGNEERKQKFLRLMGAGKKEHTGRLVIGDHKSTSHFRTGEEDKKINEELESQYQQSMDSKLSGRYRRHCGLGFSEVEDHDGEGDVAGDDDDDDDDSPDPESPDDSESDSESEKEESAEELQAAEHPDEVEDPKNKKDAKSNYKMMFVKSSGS
Chain of UniProt Q96K37 (Q96K37 whole entry): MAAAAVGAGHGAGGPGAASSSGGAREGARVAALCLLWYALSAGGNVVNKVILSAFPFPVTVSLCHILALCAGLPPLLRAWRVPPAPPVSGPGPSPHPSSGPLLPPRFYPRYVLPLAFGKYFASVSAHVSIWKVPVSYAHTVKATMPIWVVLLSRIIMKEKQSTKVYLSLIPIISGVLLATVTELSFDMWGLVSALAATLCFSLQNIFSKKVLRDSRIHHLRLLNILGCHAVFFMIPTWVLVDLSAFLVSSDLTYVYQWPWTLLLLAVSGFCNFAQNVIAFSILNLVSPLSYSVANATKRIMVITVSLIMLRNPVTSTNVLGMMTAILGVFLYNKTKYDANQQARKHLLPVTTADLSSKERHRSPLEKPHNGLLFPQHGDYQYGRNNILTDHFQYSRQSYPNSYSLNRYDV
Chain of UniProt P55145 (P55145 whole entry): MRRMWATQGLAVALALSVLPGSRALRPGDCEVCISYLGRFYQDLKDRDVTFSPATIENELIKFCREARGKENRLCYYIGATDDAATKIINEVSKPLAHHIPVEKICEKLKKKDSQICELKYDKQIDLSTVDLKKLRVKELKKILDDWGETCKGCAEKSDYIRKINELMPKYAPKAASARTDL

Target	thermal stability z-score (potassium arsenate)	thermal stability z-score (lipoamide; [1])	thermal stability z-score (lipoamide; arsenate co-treatment: none)
PCNT (UniProt O95613)	0.281	-0.505	0.496
CTNNAL1 (UniProt Q9UBT7)	0.675	0.0967	0.168
TGOLN2 (UniProt O43493)	-0.275	0.152	0.0237
RRBP1 (UniProt Q9P2E9)	-0.458	0.226	0.25
VTI1B (UniProt Q9UEU0)	-0.184	-0.0224	-0.376
RAB14 (UniProt P61106)	0.48	0.738	0.522
TGIF1 (UniProt Q15583)	-0.203	-0.557	-0.274
PRKACA (UniProt P17612)	0.535	0.104	0.151
MANF (UniProt P55145)	0.0791	0.0932	-0.0959
SLC25A15 (UniProt Q9Y619)	0.22	0.309	0.0332
VPS52 (UniProt Q8N1B4)	-0.0774	-0.424	-0.105
PPP1R21 (UniProt Q6ZMI0)	-0.839	-0.328	-0.0718
AUH (UniProt Q13825)	0.0655	-0.0558	0.0366
APPL2 (UniProt Q8NEU8)	-0.0173	0.0353	-0.132
SMAP (UniProt O00193)	-0.154	0.384	0.48
GLO1 (UniProt Q04760)	1.62	1.12	0.739
A0A087WZ62	0.358	0.00979	0.224
PSMD12 (UniProt O00232)	-0.133	-0.0164	0.0811
TMEM63B (UniProt Q5T3F8)	-0.606	-0.865	-0.374
RPP30 (UniProt P78346)	-1.55	-0.9	-0.668
ANAPC4 (UniProt Q9UJX5)	-1.3	-0.529	-0.278
FAM160B1 (UniProt Q5W0V3)	-1.49	-0.512	-0.179
CNNM2 (UniProt Q9H8M5)	-0.152	0.397	0.656
MRPL18 (UniProt Q9H0U6)	-0.799	-0.339	-0.0505
ACTR1A (UniProt P61163)	-0.614	0.0148	0.0511
ABCD1 (UniProt P33897)	0.118	-0.752	-0.422
FAM114A1 (UniProt Q8IWE2)	0.106	-0.474	-0.338
MTM1 (UniProt Q13496)	-0.804	0.198	0.0354

Target	thermal stability z-score (potassium arsenate)	thermal stability z-score (lipoamide; [1])	thermal stability z-score (lipoamide; arsenate co-treatment: none)
LONP2 (UniProt Q86WA8)	0.393	-0.55	-0.13
CAT (UniProt P04040)	0.346	0.883	1.41
DCAF13 (UniProt Q9NV06)	1.25	-0.43	-0.325
XPOT (UniProt O43592)	-0.212	-0.645	-0.112
PIK3R3 (UniProt Q92569)	0.0593	0.191	-0.186
XPA (UniProt P23025)	-0.0786	0.0325	0.0998
NHSL1 (UniProt Q5SYE7)	0.0815	0.0509	0.218
WASF1 (UniProt Q92558)	-0.375	-0.121	-0.0242
PODXL (UniProt O00592)	0.395	0.0978	0.132
JPH1 (UniProt Q9HDC5)	-0.105	0.0376	0.0934
KIF20A (UniProt O95235)	-0.154	0.142	0.152
USP13 (UniProt Q92995)	-0.0408	0.464	0.0604
COMMD1 (UniProt Q8N668)	-0.333	0.0519	0.0285
PSMC2 (UniProt P35998)	-0.134	-0.293	-0.165
FBXO4 (UniProt Q9UKT5)	-0.473	-0.0696	0.534
LRCH4 (UniProt O75427)	-0.13	0.0394	-0.101
CKAP2 (UniProt Q8WWK9)	-0.222	-0.00358	0.0789
FIBP (UniProt O43427)	0.125	0.453	0.0779
CSRP1 (UniProt P21291)	0.517	0.858	0.655
SLC35E1 (UniProt Q96K37)	-1.27	-2.03	-1.92
NR4A1 (UniProt P22736)	0.179	0.000871	0.0723
PSMC3 (UniProt P17980)	-0.44	-0.262	-0.0444
MGAT4B (UniProt Q9UQ53)	0.26	0.713	-0.264
DNAJC6 (UniProt O75061)	0.413	0.617	0.625
GINS3 (UniProt Q9BRX5)	-0.288	0.275	-0.19
KLC1 (UniProt Q07866)	-0.0989	-0.0381	-0.129
MED18 (UniProt Q9BUE0)	-0.382	-0.0409	0.0953
